These results are taken from patent US20040132700A1, “Use of fluticasone propionate in the treatment of diseases ameliorated by enhancement of epithelial madrix adhesion such as asthma cystic fibrosis and influenza” (priority 2001, published 2004).

What all share (type): cell-based
Assay [1] relates to 16HBe14o- cells. Put plainly: human sputum elastase (HSE) induced hole formation and loss of TER in 16HBe14o- monolayers. As for the experimental part:
(§1) 16HBe14o- cells were grown on transwell clear membranes until they formed an electrically tight monolayer. In the absence of serum, the cells were treated for 24 hours with FP or vehicle. 5 μg/ml human sputum elastase (HSE) or 5 μg/ml Pseudomonas Aeruginosa elastase (PAE) was then added to the basolateral surface of the cells. The transepithelial resistance (TER) and the morphology of the monolayers were monitored over the next 24 hours.
(§2) When HSE was added to the basal surface of the both the 16HBE14o- and primary bronchial epithelial cells it caused a lowering of TER and formation of holes in the cell monolayers. […] When the cells were treated with PAE, the monolayer detached from the underlying membrane as a complete sheet. It took 4 hours for all of the control cultures treated with PAE to become detached whereas it took 8 hours for all of the FP pretreated cultures to become detached.

The test system of assay [2] is human primary bronchial epithelial cells. Put plainly: human sputum elastase (HSE) induced hole formation and loss of TER in primary bronchial epithelial cells. As for the experimental part: as §1, §2
The subject of another assay is 16HBE epithelial cells. Briefly: mechanical wounding of confluent 16HBE epithelial cultures, wound area. Particulars: 16HBE cultures, various steroid concentrations for 24 h or 48 h before wounding (FIG. 7), versus control cultures. As to the method:
To study the effect of FP on protection from mechanical damage, multiple concentric wounds were generated in multiwell plates, thus achieving a large total wound length for analysis. 10^4 cells in 0.2 ml of growth medium containing 5% steroid-free FCS were added to wells in 96 well plates and cultured until confluent with regular changes of growth medium. Cultures were incubated for a further 24 h or 48 h before wounding. After wounding, cultures were rinsed in PBS, fixed at room temperature in methanol/acetone (50/50), air dried and then stained with 0.1% crystal violet. Wound areas were determined using a Leica Q550IW image analysis system. […] The steroid effects were obvious at 24 h, but even more marked at 48 h. At the latter time point, control wound size had increased, whilst the highest dose of either steroid had reduced wound size, compared to wounds after 24 h exposure. […] In the control cultures, tearing of the epithelium from the dish surface beyond the area of direct contact with the needle occurs producing a wound width that is much greater than the needle width. In contrast, in steroid treated cultures, wounds become progressively smaller with increasing steroid concentration until the damage area is limited to the epithelium that has had direct contact with the needle.

In assay [3] the test system is 16HBe14o- cells. Briefly: Pseudomonas aeruginosa elastase (PAE) induced detachment and loss of TER of 16HBe14o- monolayers. As for the experimental part:
as §1, §2

`CCC(=O)O[C@]1(C(=O)SCF)[C@H](C)C[C@H]2[C@@H]3C[C@H](F)C4=CC(=O)C=C[C@]4(C)[C@@]3(F)[C@@H](O)C[C@@]21C` [FP, S-fluoromethyl 6α, 9β-difluoro-11β-hydroxy-16α-methyl-17α-propionyloxy-3-oxoandrosta-1,4-diene-17β-carbothiate]: the “rate of hole formation in cell monolayer” value is reported as “reduction in the rate of hole formation” with 16HBe14o- cells [1] (16HBE14o- cells, 24 h FP pretreatment, 5 μg/ml HSE basolateral, monitored over 24 hours) and “reduction in the rate of hole formation” in assay [2] (primary bronchial epithelial cells, FP pretreatment, HSE added to basal surface). The “loss of TER induced by HSE” value with 16HBe14o- cells [1] (16HBe14o- cells, after 24 hour incubation with HSE (FIG. 2)) is “protective effect”. In addition, the “loss of TER induced by human sputum elastase” value in assay [2] (primary bronchial epithelial cells (FIG. 3)) was “protective effect”. For the same compound, the “wound size (wound area)” value in the assay with 16HBE epithelial cells is “dose-related decrease in wound size”. In the assay on 16HBe14o- cells [3] (16HBe14o- cells (FIG. 5)), the “loss of TER induced by pseudomonas elastase” value is “protective effect”. Further, the “time for all cultures to become detached from the underlying membrane” value in the assay with 16HBe14o- cells [3] (16HBe14o- cells, 24 h FP pretreatment, 5 μg/ml PAE basolateral, control cultures 4 hours) amounted to 8 h.
